In paper PMC11589570, “Critical assessment of LC3/GABARAP ligands used for degrader development and ligandability of LC3/GABARAP binding pockets” (Nature Communications, 2024):
Values joined by “and” are separate entries in the source; they are usually repeats but may differ in a detail not shown here. Equal values may be shown once.

Columns and labels:
Test in all cases: FP assay with Cy5-labelled p62 LIR tracer (protein titration and tracer displacement)
Assay type in all cases: binding
LC3C = LC3C (Homo sapiens, UniProt Q9BXW4); details: for compound titration LC3C (displacement curve, FP signal): two replicate columns per compound
GABARAP = GABARAP (Homo sapiens, UniProt O95166); details: for compound titration GABARAP (displacement curve, FP signal): two replicate columns per compound
GABARAPL1 = GABARAPL1 (Homo sapiens, UniProt Q9H0R8); details: GABARAPL1
[1] = log10 concentration [M] -3.82391
[2] = log10 concentration [M] -4.1549
[3] = log10 concentration [M] -4.60206
[4] = log10 concentration [M] -5.30103
[5] = log10 concentration [M] -5.69897
[6] = log10 concentration [M] -6.22185
[7] = log10 concentration [M] -6.69897
[8] = log10 concentration [M] -7.30103
[9] = log10 concentration [M] -7.79588
[10] = log10 concentration [M] -8.08092

Chain of LC3C (Q9BXW4 1-126): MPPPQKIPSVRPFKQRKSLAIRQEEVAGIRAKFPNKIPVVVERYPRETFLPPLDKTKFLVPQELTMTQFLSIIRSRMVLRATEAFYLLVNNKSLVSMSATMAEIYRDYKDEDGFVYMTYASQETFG
Chain of GABARAP (O95166 1-116): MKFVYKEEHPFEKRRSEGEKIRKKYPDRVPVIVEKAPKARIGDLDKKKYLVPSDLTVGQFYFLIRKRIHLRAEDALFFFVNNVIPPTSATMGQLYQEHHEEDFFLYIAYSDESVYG
Chain of GABARAPL1 (Q9H0R8 whole entry): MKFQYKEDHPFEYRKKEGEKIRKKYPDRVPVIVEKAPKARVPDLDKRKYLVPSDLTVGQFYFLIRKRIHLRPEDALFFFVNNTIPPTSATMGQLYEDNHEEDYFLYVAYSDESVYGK

CO[C@@H]1[C@@H](OC(N)=O)[C@@H](O)[C@H](Oc2ccc3c(O)c(NC(=O)c4ccc(O)c(CC=C(C)C)c4)c(=O)oc3c2C)OC1(C)C [compound 12, Novobiocin]
Ki (LC3C; FP, p62 LIR-based tracer, LC3C): 172 µM | normalized FP signal, p62 LIR tracer displacement (LC3C; LC3C, log10 concentration [M] -3.82391): 67.8 and 62.8 | normalized FP signal, p62 LIR tracer displacement (LC3C; LC3C, log10 concentration [M] -4.1549): 76.2 and 80.2 | normalized FP signal, p62 LIR tracer displacement (LC3C; LC3C, log10 concentration [M] -4.60206): 85.4 and 91.6 | normalized FP signal, p62 LIR tracer displacement (LC3C; LC3C, log10 concentration [M] -5): 91 and 93 | normalized FP signal, p62 LIR tracer displacement (LC3C; LC3C, log10 concentration [M] -5.30103): 89.4 and 92.6 | normalized FP signal, p62 LIR tracer displacement (LC3C; LC3C, log10 concentration [M] -5.69897): 84.2 and 84.8 | normalized FP signal, p62 LIR tracer displacement (LC3C; LC3C, log10 concentration [M] -6.22185): 92.6 and 89 | normalized FP signal, p62 LIR tracer displacement (LC3C; LC3C, log10 concentration [M] -6.69897): 89.2 and 92.2 | normalized FP signal, p62 LIR tracer displacement (LC3C; LC3C, log10 concentration [M] -7.30103): 89.8 and 92.6 | normalized FP signal, p62 LIR tracer displacement (LC3C; LC3C, log10 concentration [M] -7.79588): 86 and 89.6 | normalized FP signal, p62 LIR tracer displacement (LC3C; LC3C, log10 concentration [M] -8.08092): 86.2 and 93.6 | compound titration LC3C (displacement curve, FP signal) (LC3C; [1]): 67.8 and 62.8 | compound titration LC3C (displacement curve, FP signal) (LC3C; [2]): 76.2 and 80.2 | compound titration LC3C (displacement curve, FP signal) (LC3C; [3]): 85.4 and 91.6 | compound titration LC3C (displacement curve, FP signal) (LC3C; log10 concentration [M] -5): 91 and 93 | compound titration LC3C (displacement curve, FP signal) (LC3C; [4]): 89.4 and 92.6 | compound titration LC3C (displacement curve, FP signal) (LC3C; [5]): 84.2 and 84.8 | compound titration LC3C (displacement curve, FP signal) (LC3C; [6]): 92.6 and 89 | compound titration LC3C (displacement curve, FP signal) (LC3C; [7]): 89.2 and 92.2 | compound titration LC3C (displacement curve, FP signal) (LC3C; [8]): 89.8 and 92.6 | compound titration LC3C (displacement curve, FP signal) (LC3C; [9]): 86 and 89.6 | compound titration LC3C (displacement curve, FP signal) (LC3C; [10]): 86.2 and 93.6 | Ki (GABARAP; FP, p62 LIR-based tracer, GABARAP): 57.2 µM | normalized FP signal, p62 LIR tracer displacement (GABARAP; GABARAP, log10 concentration [M] -3.82391): 49.3103 and 44.4828 | normalized FP signal, p62 LIR tracer displacement (GABARAP; GABARAP, log10 concentration [M] -4.1549): 63.6207 and 63.4483 | normalized FP signal, p62 LIR tracer displacement (GABARAP; GABARAP, log10 concentration [M] -4.60206): 76.2069 and 82.069 | normalized FP signal, p62 LIR tracer displacement (GABARAP; GABARAP, log10 concentration [M] -5): 86.7241 and 89.3103 | normalized FP signal, p62 LIR tracer displacement (GABARAP; GABARAP, log10 concentration [M] -5.30103): 94.1379 and 92.069 | normalized FP signal, p62 LIR tracer displacement (GABARAP; GABARAP, log10 concentration [M] -5.69897): 87.069 and 88.2759 | normalized FP signal, p62 LIR tracer displacement (GABARAP; GABARAP, log10 concentration [M] -6.22185): 93.1034 and 95.6897 | normalized FP signal, p62 LIR tracer displacement (GABARAP; GABARAP, log10 concentration [M] -6.69897): 96.7241 and 93.1034 | normalized FP signal, p62 LIR tracer displacement (GABARAP; GABARAP, log10 concentration [M] -7.30103): 97.069 and 95.6897 | normalized FP signal, p62 LIR tracer displacement (GABARAP; GABARAP, log10 concentration [M] -7.79588): 90.8621 and 89.1379 | normalized FP signal, p62 LIR tracer displacement (GABARAP; GABARAP, log10 concentration [M] -8.08092): 86.7241 and 92.2414 | compound titration GABARAP (displacement curve, FP signal) (GABARAP; [1]): 49.3103 and 44.4828 | compound titration GABARAP (displacement curve, FP signal) (GABARAP; [2]): 63.6207 and 63.4483 | compound titration GABARAP (displacement curve, FP signal) (GABARAP; [3]): 76.2069 and 82.069 | compound titration GABARAP (displacement curve, FP signal) (GABARAP; log10 concentration [M] -5): 86.7241 and 89.3103 | compound titration GABARAP (displacement curve, FP signal) (GABARAP; [4]): 94.1379 and 92.069 | compound titration GABARAP (displacement curve, FP signal) (GABARAP; [5]): 87.069 and 88.2759 | compound titration GABARAP (displacement curve, FP signal) (GABARAP; [6]): 93.1034 and 95.6897 | compound titration GABARAP (displacement curve, FP signal) (GABARAP; [7]): 96.7241 and 93.1034 | compound titration GABARAP (displacement curve, FP signal) (GABARAP; [8]): 97.069 and 95.6897 | compound titration GABARAP (displacement curve, FP signal) (GABARAP; [9]): 90.8621 and 89.1379 | compound titration GABARAP (displacement curve, FP signal) (GABARAP; [10]): 86.7241 and 92.2414 | Ki (GABARAPL1; FP, p62 LIR-based tracer): 66.2 µM | normalized FP signal, p62 LIR tracer displacement (GABARAPL1; [1]): 56.4286 and 54 | normalized FP signal, p62 LIR tracer displacement (GABARAPL1; [2]): 66.8571 and 68.4286 | normalized FP signal, p62 LIR tracer displacement (GABARAPL1; [3]): 83.8571 and 84.7143 | normalized FP signal, p62 LIR tracer displacement (GABARAPL1; log10 concentration [M] -5): 91.2857 and 89.4286 | normalized FP signal, p62 LIR tracer displacement (GABARAPL1; [4]): 92.4286 and 94.8571 | normalized FP signal, p62 LIR tracer displacement (GABARAPL1; [5]): 90 and 96 | normalized FP signal, p62 LIR tracer displacement (GABARAPL1; [6]): 93.7143 and 95.7143 | normalized FP signal, p62 LIR tracer displacement (GABARAPL1; [7]): 100.143 and 97.8571 | normalized FP signal, p62 LIR tracer displacement (GABARAPL1; [8]): 98.4286 and 98.8571 | normalized FP signal, p62 LIR tracer displacement (GABARAPL1; [9]): 94.4286 and 92.2857 | normalized FP signal, p62 LIR tracer displacement (GABARAPL1; [10]): 93.8571 and 98.4286
